The results in this text go back to patent US20240101584A1, “TARGETED DELIVERY OF 1,2,4,5 TETRAOXANE COMPOUNDS AND THEIR USES” (Westlake University, priority 2021, published 2024).

The test system of one series is HEK293 cells. Kind of series: MTT viability assay, HEK293 cells. The class given is cell-based. The following applies: Homo sapiens, HEK293, 48 h incubation, mean, n = 3, read-out: IC50 against HEK293 cells.
A further series relates to HepG2 cells. The series can be described thus: MTT viability assay, HepG2 cells. The class given is cell-based, human. On the procedure:
The anticancer activities of the exemplary compounds listed in Example 1 were tested against human cervix Hela cells, mammary breast cancer MDA-MB-231 cells, human hepatocellular HepG2 cells, human colorectal HCT116 cells, mammary ductal T47D cells, non-cancerous NIH3T3 cells, dog's kidney MDCK cells, and mouse brain bEnd.3 cells, respectively.

Another series relates to U2OS. The series can be described thus: Viability IC50, U2OS cells. The class given is cell-based. Particulars: Homo sapiens, Table 12a.
Series [1] relates to lipid ROS in MDA-MB-231 cells. Kind of series: C11-BODIPY lipid ROS detection in MDA-MB-231 cells. The class given is cell-based. The following applies: 48 5 μM, 37b 1 μM, RSL3 0.5 μM; 6 h incubation. How it is done: FIG. 11 is a bar graph showing the detection of lipid ROS with compound 48 (5 μM), compound 37b (1 μM), or RSL3 (0.5 μM) by BODIPY 581/591 C11 after 6 h incubation in MDA-MB-231 cells. **P≤0.01 versus DMSO group. Data are plotted as the mean±SD, n=3 biologically independent samples. All P values were determined using two-tailed Student's t-test.
Since lipid peroxidation is the evidence about ferroptosis, C11-BODIPY probe is used to validate the lipid ROS generated by tetraoxanes. It is a ratiometric membrane-targeted probe which changes the emission from 590 nm to 510 nm upon the detection of lipid ROS. Here, MDA-MB-231 cells were treated with 48, 37b and RSL3, respectively. The lipid ROS levels were quantified by flow cytometry. Untreated group gave weak signal in FL1 channel (FIG. 11).

For the next series, the system named is NIH3T3 cells. Kind of series: MTT viability assay, non-cancerous NIH3T3 cells. The following applies: Mus musculus, NIH3T3. The class given is cell-based. Summed up:
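The same panel also contained HepG2, HCT116, non-cancerous NIH3T3 and MDCK cells. Here, bEnd.3 is a mouse brain line, Hela is human cervix, MDA-MB-231 is mammary breast cancer and T47D is mammary ductal.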
Background: Formazan colour is commonly taken as a measure of viable cells.

In the next series the test system is MDA-MB-231 cells. The series can be described thus: Ferroptosis inhibitor rescue (Fer-1, liproxstatin-1) in MDA-MB-231 cells. The class given is cell-based. The following applies: 24 h; for effect of Fer-1 on MDA-MB-231 cell death: Fer-1 50 μM. On the procedure: FIG. 8A is a bar graph showing the effect of Fer-1 (50 μM) on MDA-MB-231 cells treated with compounds 37b, 37a, and 30b, respectively, at the indicated concentrations for 24 h. […], **P≤0.01, ***P≤0.001 versus non-pretreated cells, N.S., no statistically significant change. Data represent mean±SD, n=3 biologically independent samples. All P values were determined using two-tailed Student's t-test.
FIG. 8B is a bar graph showing the effect of Fer-1 (50 μM) on MDA-MB-231 cells treated with compounds 6b, 48, 30a, and 37f, respectively, at the indicated concentrations for 24 h. *P≤0.01, **P≤0.002, ***P≤0.001 versus non-pretreated cells. Data represent mean±SD, n=3 biologically independent samples. FIG. 8C is a bar graph showing the effect of Fer-1 and DFO on MDA-MB-231 cells treated with compounds 56 and 53, respectively, at the indicated concentrations for 24 h. *P≤0.01, **P≤0.002, ***P≤0.001 versus non-pretreated cells. All P values were determined using two-tailed Student's t-test.
FIG. 9 is a bar graph showing the effect of liproxstatin ([…]) on MDA-MB-231 cells treated with compounds 48 and 37b, respectively, at the indicated concentrations for 24 h. **P≤0.01 versus non-pretreated cells. Data represent mean±SD, n=3 biologically independent samples. All P values were determined using two-tailed Student's t-test.
Fer-1 was used to investigate the cell death pathway induced by the compounds described herein. Liproxstatin-1 was used to further confirm whether 48 and 37b triggered off ferroptosis in MDA-MB-231 cells.

Series [2] has as its system HEYA8 CSC xenograft tumors. The series can be described thus: Mouse xenograft ovarian tumors (HEYA8 CSC). The class given is in vivo. Particulars: for tolerability of regimens in tested animals / abnormal behavior or weight loss during treatment period: HEYA8 CSC xenograft mice; for abnormal behavior or weight loss during treatment period: entire treatment period. On the procedure: FIG. 7A is a graph showing the tumor volume of xenograft tumors versus time after s.c. injection of DMSO, PTX, compound 37b, or compound 48. Nude mice were injected s.c. with HEYA8 CSC cells (10^6) and randomly allocated to one of the six treatment groups (n=4): (i) DMSO, (ii) Paclitaxel (PTX), 5 mg/kg, (iii) compound 37b, 5 mg/kg, (iv) compound 37b, 10 mg/kg, (v) compound 48, 5 mg/kg, or (vi) compound 48, 10 mg/kg. When control animals (DMSO) began to appear tumor ulceration (25 days), all animals in the experiment were sacrificed and photographed. FIG. 7B are photographs of the tumor from sacrificed animals of different treatment groups after 25 days. FIG. 7C is a graph showing the tumor weight of xenograft tumors versus time after s.c. injection of DMSO, PTX, compound 37b, or compound 48. Data are shown as mean±SEM. * P≤0.05 versus DMSO group.
The cytotoxicity of 1,2,4,5-tetraoxanes 48 and 37b on cancer stem cell (CSC) model of HEY A8 CSCs and mouse xenograft ovarian tumors (FIG. 2) was examined. Nude mice were injected s.c. with HEYA8 CSC cells […] and randomly allocated to one of the six treatment groups (n=4): (i) DMSO, (ii) Paclitaxel (PTX), 5 mg/kg, (iii) compound 37b, 5 mg/kg, (iv) compound 37b, 10 mg/kg, (v) compound 48, 5 mg/kg, and (vi) compound 48, 10 mg/kg. When control animals (DMSO) began to appear tumor ulceration (25 days), all animals in the experiment were sacrificed and photographed. It is known that ovarian CSCs have resistance to Taxol, so Taxol was used as negative control.

A further series concerns HEY A8 cells. The series can be described thus: Protective effect of DFO and Fer-1 on adherent HEY A8 cells. The class given is cell-based. The following applies: 24 h treatment. How it is done:
FIG. 4 is a bar graph showing the protective effect of DFO and Fer-1 on HeyA8 cancer cells after treatment with compound 48 for 24 h. *P≤0.01, ***P≤0.001 versus non-pretreated group. Data represent mean±SD, n=3 biologically independent samples. All P values were determined using two-tailed Student's t-test.

The test system of the next series is Jurkat cells. The series can be described thus: MTT viability assay, Jurkat cells. The class given is cell-based. The following applies: Homo sapiens, 48 h incubation, mean, n = 3, read-out: IC50 against Jurkat cells.
[3] abbreviates: MTT, 48 h incubation, mean, n = 3, read-out: IC50 against NIH3T3 cells.
Where [4] appears, read: Table 12b, read-out: IC50 NIH3T3.

SMILES strings stand for the structures. Like-named read-outs stand apart in the source and are kept apart here.

By IC50 is commonly meant the concentration that gives 50% inhibition. With `CC(C)(C)C1CCC2(CC1)OOC1(CCC(OC(=O)NCCC[P+](c3ccccc3)(c3ccccc3)c3ccccc3)CC1)OO2.[Br-]` (stereo not drawn) [Compound 37b, (3-((((12-(tert-butyl)-7,8,15,16-tetraoxadispiro[5.2.59.26]hexadecan-3-yl)oxy)carbonyl)amino)propyl)triphenylphosphonium bromide], the IC50 was determined as 1.6 µM in the series with HEK293 cells; 0.7 µM in the series with HepG2 cells (Homo sapiens, HepG2, MTT, 48 h incubation, mean, n = 3, read-out: IC50 against HepG2 cells); 3.4 ± 0.2 µM with U2OS; 4.6 µM in the series on NIH3T3 cells (setting [3]); 4.6 ± 1.9 µM with NIH3T3 cells (setting [4]). In the series with HepG2 cells (comparator RKA182), the “fold more cytotoxic than RKA182 for HepG2 cells” value came out at 36 fold. The “lipid ROS (BODIPY 581/591 C11, FL1, flow cytometry)” value in [1] is reported as “lipid ROS was generated”. Besides, the “effect of liproxstatin-1 pretreatment on MDA-MB-231 cell death” value in the series with MDA-MB-231 cells is “prevented the cell death”. Moreover, the “effect of Fer-1 on MDA-MB-231 cell death” value in the series on MDA-MB-231 cells was “subverted MDA-MB-231 cell death”. Also, the “tumor growth compared with vehicle control” value in series [2] (5 mg/kg and 10 mg/kg, HEYA8 CSC xenograft, 25 days) was “effective in inhibiting tumor growth”. Also, the “tolerability of regimens in tested animals” value in series [2] is on record as “well-tolerated”. Moreover, in series [2], the “abnormal behavior or weight loss during treatment period” value was “no abnormal behavior or weight loss”.
With `CC(C)(C)C1CCC2(CC1)OOC1(CCC(OC(=O)NCCC[N+](C)(Cc3ccccc3)Cc3ccccc3)CC1)OO2.[I-]` (stereo not drawn) [Compound 48, N,N-dibenzyl-3-((((12-(tert-butyl)-7,8,15,16-tetraoxadispiro[5.2.59.26]hexadecan-3-yl)oxy)carbonyl)amino)-N-methylpropan-1-aminium iodide], the “effect of DFO or Fer-1 pretreatment on induced cell death, adherent HEY A8 cells” value in the series with HEY A8 cells is reported as “reversed the cell death”. Moreover, the IC50 came to 4.4 ± 0.6 µM with U2OS; 29 ± 5.7 µM with NIH3T3 cells (setting [3]); 29 ± 5.7 µM in the series with NIH3T3 cells (setting [4]); 29 ± 5.7 µM in the series with NIH3T3 cells (Table 13, experimental data, MTT, 48 hrs, n = 3, read-out: IC50 NIH3T3); 1 µM in the series with Jurkat cells. Further, the “lipid ROS (BODIPY 581/591 C11, FL1, flow cytometry)” value in [1] is “lipid ROS was generated”. For the same compound, in the series on MDA-MB-231 cells, the “effect of liproxstatin-1 pretreatment on MDA-MB-231 cell death” value was “prevented the cell death”. Moreover, in the series with MDA-MB-231 cells, the “effect of Fer-1 on MDA-MB-231 cell death” value is recorded as “subverted MDA-MB-231 cell death”. Further, the tumor size entry in [2] (10 mg/kg, HEYA8 CSC xenograft, 25 days) was “reduced the tumor size”. Also, in series [2], the “tolerability of regimens in tested animals” value is “well-tolerated”. The “abnormal behavior or weight loss during treatment period” value in series [2] is “no abnormal behavior or weight loss”.
